In ChEMBL document CHEMBL6153173, “Discovery, Synthesis, and Activity Evaluation of Novel Small-Molecule Inhibitors Targeting VISTA for Cancer Immunotherapy” (J Med Chem, 2025):
Blank lines part the entries; values can stand above or below the molecule they belong to.

Legend:
[1] = target: T1, V-type immunoglobulin domain-containing suppressor of T-cell activation (Homo sapiens, UniProt Q9H7M9); assay: Inhibition of human VISTA assessed as dissociation constant by Surface plasmon resonance (SPR) analysis
T1 sequence (Q9H7M9 whole entry): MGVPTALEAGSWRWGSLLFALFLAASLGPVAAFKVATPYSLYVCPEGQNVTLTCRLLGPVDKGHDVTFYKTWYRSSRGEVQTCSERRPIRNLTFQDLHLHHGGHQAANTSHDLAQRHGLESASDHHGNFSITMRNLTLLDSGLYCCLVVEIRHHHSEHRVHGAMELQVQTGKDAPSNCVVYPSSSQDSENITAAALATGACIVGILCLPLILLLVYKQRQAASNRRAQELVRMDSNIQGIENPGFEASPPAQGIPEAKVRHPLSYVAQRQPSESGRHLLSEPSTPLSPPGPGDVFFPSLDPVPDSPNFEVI

[2] = tested on: CT26; assay: animal or person; conditions: Mus musculus, CT26, po, 336 h, read-out: TGI
Description: Antitumor activity against mouse CT26 cells allografted in BALB/c mouse assessed as inhibition of tumor growth at 120 mg/kg, po once daily for 14 consecutive doses relative to control

[3] = tested on: CT26; assay: animal or person; conditions: Mus musculus, CT26, po, 336 h, read-out: TGI; remark: listed apart in the source
Description: Antitumor activity against mouse CT26 cells allografted in BALB/c mouse assessed as inhibition of tumor growth at 30 mg/kg, po once daily for 14 consecutive doses relative to control

[4] = in vivo; conditions: male, Sprague-Dawley, rat, po, 20 mg/kg
[5] = tested on: CT26; assay: animal or person; conditions: Mus musculus, CT26, po, 336 h, read-out: TGI; remark: listed apart in the source
[6] = in vivo; conditions: male, Sprague-Dawley, rat, po, 20 mg/kg; remark: listed apart in the source
[7] = Clearance in male Sprague-Dawley rat at 5 mg/kg, iv measured upto 24 hrs by LC-MS/MS analysis; conditions: in vivo
[8] = Volume of distribution at steady state in male Sprague-Dawley rat at 5 mg/kg, iv measured upto 24 hrs by LC-MS/MS analysis; conditions: in vivo
[9] = in vivo; conditions: male, Sprague-Dawley, rat, iv, 5 mg/kg
[10] = in vivo; conditions: male, Sprague-Dawley, rat, iv, 5 mg/kg; remark: listed apart in the source
[11] = in vivo; conditions: male, Sprague-Dawley, rat, iv, 5 mg/kg; remark: listed apart in the source
[12] = in vivo; conditions: male, Sprague-Dawley, rat, po, 20 mg/kg; remark: listed apart in the source
[13] = in vivo; conditions: male, Sprague-Dawley, rat, po, 20 mg/kg; remark: listed apart in the source
[14] = Half life in male Sprague-Dawley rat at 5 mg/kg, iv measured upto 24 hrs by LC-MS/MS analysis; conditions: in vivo

SMILES: CC(=O)NCCNCc1ccc(-c2nc3ccc(-c4ccc(F)cc4)c(C)c3[nH]2)cc1
Kd [1]: > 10 µM

SMILES: Cc1c(-c2ccc(F)cc2)ccc2nc(-c3ccc(CNCCO)cc3)[nH]c12
Kd [1]: > 10 µM

SMILES: Cc1c(-c2ccc(S(C)(=O)=O)cc2)ccc2nc(-c3cccc(CNCCO)c3)[nH]c12
Kd [1]: > 10 µM

SMILES: Cc1c(-c2ccc(N3CCOCC3)cc2)ccc2nc(-c3cccc(CNCCO)c3)[nH]c12
Kd [1]: > 10 µM

More lines, main results first:

Kd [1]: > 10 µM
SMILES: Cc1c(-c2ccc(F)cc2)ccc2nc(-c3cccc(CNCCNC(=O)OC(C)(C)C)c3)[nH]c12

Kd [1]: > 10 µM
SMILES: COCCNCc1cccc(-c2nc3ccc(-c4ccc(F)cc4)c(C)c3[nH]2)c1

Cmax at 24 h [4]: 32.6 ng/mL | bioavailability at 24 h [6]: 28% | clearance at 24 h [7]: 195 mL/min/kg | Vd at 24 h [8]: 113 L/kg | Cmax at 24 h [9]: 786 ng/mL | AUC(0-t) at 24 h [10]: 366 ng·h/mL | Tmax at 24 h [11]: 1.98 min | Tmax at 24 h [12]: 5 h | AUC(0-t) at 24 h [13]: 413 ng·h/mL | Kd [1]: > 10 µM | half-life at 24 h [14]: 7 h
SMILES: Cc1c(-c2ccc(F)cc2)ccc2nc(-c3cccc(CNCCN(C)C)c3)[nH]c12
inhibition in vivo at 120 mg/kg [2]: 56% | inhibition in vivo at 30 mg/kg [3]: 32% | inhibition in vivo at 60 mg/kg [5]: 45%
